Experiments:
[1] = system: rat Cerebellar Granular Cells (CGC); test: Cell viability (MTT) of CGC exposed to IAPP 20-29 monomer or aggregated; format: cell-based
Procedure: The solutions fragment of IAPP 20-29 (MM 1029 Da) are prepared in PBS buffer (100 mM, pH 7.4; NaCl 100 mM). Monomeric peptide concentration was 5.8 mM and the aggregation peptide was 32.6 μM in DMSO. Protein concentration is calculated using the calibration curve.
Chaperonin: solutions of chaperonin B and D (25 μM), selected as non-limiting examples of Formula I, are prepared in 1.2 mL of DMSO and dilute with the buffer to obtain a final volume of […]. Curcumin (5.5 mM) used as reference compound was prepared in ethanol. (Yang, F. et al. in J. Biol Chem 2005, 280, 5892-5901). […]
In particular, in this invention, the viability of CGC cell cultures was assessed with the 20-29 fragment of IAPP, in its monomeric and aggregated form or with the mixtures of protein:chaperonin at different molar ratios. Briefly, in all samples of CGC, half of the volume of medium is removed to add, independently, the quantities of tested protein or mixtures of peptide:chaperonin with different molar ratios (1:0.3 or 1:1). […]
In FIG. 12, the results of the assessment of cell viability was observed by MTT assay, which were analyzed by the one-way ANOVA statistical test, followed by a posteriori LSD test (LSD for its acronym in English Least Significant Difference).

[2] = Tubis et al. 1960; cited from earlier work

Compound	CGC viability with IAPP monomer plus reference compound versus monomer alone ([1]; IAPP 20-29 monomer, 20 hours, p>0.05)	CGC viability with aggregated IAPP 20-29 plus compound versus aggregated fragment alone ([1]; aggregated form of IAPP 20-29, 20 hours)	Fraction able to cross the blood brain barrier (BBB) [2] [%]
COc1cc(/C=C/C(=O)CC(=O)/C=C/c2ccc(O)c(OC)c2)ccc1O [curcumin]	no significant differences	marked cytoprotective effect	–
Nc1c(/N=N/c2ccc(-c3ccc(/N=N/c4cc(S(=O)(=O)O)c5ccccc5c4N)cc3)cc2)cc(S(=O)(=O)O)c2ccccc12 [CR, Congo Red]	–	–	0.03

From US9763900B2, “Chemical chaperonins as novel molecular modulators of beta protein aggregation present in conformational diseases” (Centro de Neurociencias de Cuba (NEURONIC), priority 2013, dated 2017)
